Patent US20090004497A1, “Wood Preservative Formulations Comprising Rh-287” (priority 2006, published 2009)
Where “and” joins values, the source holds several entries; their conditions need not be identical. Equal entries are not always repeated.

System: decay organisms
Assay: soil contact veneer exposure test (Scots pine sapwood veneers part buried in damp compost, pulled by hand until failure)
Details: for Half lives for chemicals tested as solutions in acetone, With RH-287 added / Half lives for chemicals tested as solutions in acetone, No addition (average time for failure to occur) / Half lives, With RH-287 added, expected value in parentheses / positive synergy: actual average time to failure compared with the estimated one: Example 1; for Half lives for chemicals tested as solutions in acetone, With RH-287 added: 1.00% fungicide plus 1.00% RH-287 in acetone; for Half lives for chemicals tested as solutions in acetone, No addition (average time for failure to occur): 2.00% fungicide alone in acetone, dip treated veneers, 6 replicates, compost about 30° C.; for Half lives, With RH-287 added, expected value in parentheses: expected additive value for 1.00% fungicide plus 1.00% RH-287, midway between the two 2.00% values; for positive synergy: actual average time to failure compared with the estimated one: combination of RH-287 with co-biocide, 1.00% each in acetone
Source text: It is preferable that the thickness of the veneers be greater than 0.1 mm, as veneers of lesser thickness can often be pulled apart by hand without undergoing exposure to decay organisms. Veneers which are thicker than 0.4 may take an excessive amount of time to fail the exposure test. In one embodiment, the thickness of the veneers is about 0.2 mm and the wood is the sapwood of the Scots pine (Pinus sylvestris). Other woods and thicknesses can be used. […] For example, 0.2 mm thick Scots pine sapwood veneers which are exposed as outlined below generally fail in 5 weeks or less. An example of convenient width and length dimensions are 15×50 mm. However, width and length are not critical, although very large or small length or width dimensions may be difficult to handle.
Accordingly, the test of the present invention comprises testing the integrity of a veneer after exposure to a decay-inducing environment. In one embodiment, this environment is damp compost in which decay organisms are present and water is present at just above the water holding capacity of the compost. If desired, other media can be used, and the test can be conducted at water contents which are below, at, or above the water-holding capacity of the media.
In general, the integrity of the veneer is inversely related to the length of exposure to the decay promoting environment. The integrity of the veneer can be tested by applying a force to the veneer and noting whether or not the veneer breaks. Thus, if wood preservative agents are applied to the veneers, these veneers would be expected to withstand longer exposure to the environment without breaking compared to control veneers without breaking.
The force applied to the veneers is preferably a force which pulls the two ends in opposite directions. The force can be applied by the use of an instrument or manually. If there is significant decay the veneer will break, generally near the junction between the portion submerged in the decay accelerating medium and the portion exposed to air. If the force is applied manually, it is preferable that the same individual conduct the test at the various exposure time points.
Veneers of Scots pine Pinus sylvestris (0.2 mm thick, 50×15 mm) sapwood are cut from test blocks as described in EN 113, a known standard test method in the European timber industry. The veneers were cut such that both late wood and early wood were present in each veneer. RH-287 was tested in combination with the following biocides: chlorothalonil, fenpropimorph, propiconazole, copper ( as copper naphthenate ), tridemorph, fenarimol, cyproconazole, Imazalil and dichlorophen.
Test solutions were prepared and sets of veneers were dip treated such that there were 6 replicate veneers for each treatment under investigation. Additionally six veneers were dip treated in deionised water to act as water controls. Being thin, the timber veneers dried quickly. Plastic containers (approximately 350×220 mm by at least 60 mm high) were part filled with John Innes Number 2 potting compost at a little above its water holding capacity. The veneers for a particular test were placed in six rows within a container such that approximately half the veneer was below the compost and half above. The veneers were placed in the compost such than those given a particular treatment were distributed throughout the container and were not grouped together. The containers, compost and veneers were weighed then incubated at about 30° C. and near 100% relative humidity in an incubator. Each week during the test the assembly was reweighed and deionised water added to bring it back to its original mass. After 3 weeks each veneer was examined in turn. It was held between the fingers at each end and pulled to see if it could be broken. If it could be pulled apart a failure was recorded. If the veneer was sound, this was recorded and the veneer was returned to its original position. […]

[1] = Example 3, solutions in acetone
[2] = Example 4, solutions in acetone

| Molecule | Half lives for chemicals tested as solutions in acetone, With RH-287 added | Half lives for chemicals tested as solutions in acetone, No addition (average time for failure to occur) | Half lives, With RH-287 added, expected value in parentheses | other results |
| --- | --- | --- | --- | --- |
| OC(c1ccc(Cl)cc1)(c1cncnc1)c1ccccc1Cl (racemic) [Fenarimol, (±)-2,4′-dichloro-α-(pyrimidin-5-yl) benzhydryl alcohol] | 17.17 weeks | 5.50 weeks | (15.34 weeks) | – |
| CC(Cc1ccc(C(C)(C)C)cc1)CN1C[C@@H](C)O[C@@H](C)C1 (mixture of isomers) [Fenpropimorph, (±)-cis-4-[3-(4-tert-butylphenyl)-2-nethylpropyl]-2,6-dimethyl=morpholine] | 21.17 weeks | 4.50 weeks | (14.84 weeks) | positive synergy: actual average time to failure compared with the estimated one: most marked |
| CCCC1COC(Cn2cncn2)(c2ccc(Cl)cc2Cl)O1 (racemic) [Propiconazole, (±)-1-[2-(2,4-dichlorophenyl)-4-propyl-1,3-dioxolan-2-ylmethyl-=1H-1,2,4-triazol] | 20.50 weeks | 4.50 weeks | (14.84 weeks) | – |
| N#Cc1c(Cl)c(Cl)c(Cl)c(C#N)c1Cl [Chlorothalonil, tetrachloroisophthalonitrile] | 22.50 weeks | 12.5 weeks and 12.50 weeks | – | Half lives for chemicals tested as solutions in acetone, No addition (average time for failure to occur) (listed as chlorothalonil): 12.5 weeks; Half lives, With RH-287 added, expected value in parentheses (listed as chlorothalonil): about 18.84 weeks |
| CC(C1CC1)C(O)(Cn1cncn1)c1ccc(Cl)cc1 (stereo not drawn) [Cyproconazole, (2RS,3RS;2RS,3SR)-2-(4-chlorophenyl)-3-cyclopropyl-1-=(1H-1,2,4-trazol-1-yl)butan-2-ol] | 22.00 weeks | 5.17 weeks | (15.17 weeks) | positive synergy: actual average time to failure compared with the estimated one: most marked |
| Oc1ccc(Cl)cc1Cc1cc(Cl)ccc1O [Dichlorophen, 4.4′-dichloro-2,2′-methylenediphenol] | 24.17 weeks | 16.00 weeks | (20.59 weeks) | Half life for 0.8% fungicide plus 0.8% RH-287, expected value in parentheses (Example 3, expected additive value): {13.83 weeks}; Half life for 0.8% fungicide plus 0.8% RH-287 [1]: 15.33 weeks; Half life for fungicide at 0.8% active ingredient [1]: 8.67 weeks; Half life for fungicide at 1.60% active ingredient (ai) [1]: 10.83 weeks |
| CCCCCCCCn1sc(Cl)c(Cl)c1=O [RH-287, 4,5 dichloro-2-n-octyl-4-isothiazolin-3-one] | – | 25.17 weeks | – | Half life for fungicide at 2.00% active ingredient (ai) (Example 2, solutions in acetone): 22.50 weeks; Half life for fungicide at 0.8% active ingredient [1]: 10.00 weeks; Half life for fungicide at 1.60% active ingredient (ai) [1]: 16.83 weeks; Half life for fungicide at 0.8% active ingredient [2]: 12.17 weeks; Half life for fungicide at 1.60% active ingredient (ai) [2]: 16.67 weeks; relationship between concentration of RH-287 and veneer half life (Example 5, up to about 2% RH-287 in acetone (FIG. 1)): corresponding increase in the half life |
| CCCCCCCCCCCCCN1CC(C)OC(C)C1 (stereo not shown) [Tridemorph, 4-alkyl-2,6-dimethylmorpholine] | 17.50 weeks | 4.33 weeks | (14.75 weeks) | – |
| Copper naphthenate [Copper (as Copper Naphthenate)] | 21.50 weeks | 16.67 weeks | – | – |
